# How the values were obtained:
# ROCK1 = ROCK1 (Homo sapiens (Human), UniProt Q13464); test: ROCK assay (Caliper LABCHIP peptide phosphorylation), ROCK1; assay type: biochemical; settings: 5 μM ATP, 1.5 μM peptide substrate;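 further: Read-out is separation of phosphorylated from unphosphorylated peptide, with kinase activity inhibition computed at every concentration of a dose-response series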
# ROCK2 = ROCK2 (Homo sapiens (Human), UniProt O75116); test: ROCK assay (Caliper LABCHIP peptide phosphorylation), ROCK2; assay type: biochemical; settings: 5 μM ATP, 1.5 μM peptide substrate;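 further: reaction stopped with EDTA, then phosphorylated and unphosphorylated peptide resolved by microfluidic electrophoresis, kinase inhibition computed at each compound concentration in dose-response series, DMSO under 2%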
# Chain of ROCK2 (O75116 whole entry, species assumed): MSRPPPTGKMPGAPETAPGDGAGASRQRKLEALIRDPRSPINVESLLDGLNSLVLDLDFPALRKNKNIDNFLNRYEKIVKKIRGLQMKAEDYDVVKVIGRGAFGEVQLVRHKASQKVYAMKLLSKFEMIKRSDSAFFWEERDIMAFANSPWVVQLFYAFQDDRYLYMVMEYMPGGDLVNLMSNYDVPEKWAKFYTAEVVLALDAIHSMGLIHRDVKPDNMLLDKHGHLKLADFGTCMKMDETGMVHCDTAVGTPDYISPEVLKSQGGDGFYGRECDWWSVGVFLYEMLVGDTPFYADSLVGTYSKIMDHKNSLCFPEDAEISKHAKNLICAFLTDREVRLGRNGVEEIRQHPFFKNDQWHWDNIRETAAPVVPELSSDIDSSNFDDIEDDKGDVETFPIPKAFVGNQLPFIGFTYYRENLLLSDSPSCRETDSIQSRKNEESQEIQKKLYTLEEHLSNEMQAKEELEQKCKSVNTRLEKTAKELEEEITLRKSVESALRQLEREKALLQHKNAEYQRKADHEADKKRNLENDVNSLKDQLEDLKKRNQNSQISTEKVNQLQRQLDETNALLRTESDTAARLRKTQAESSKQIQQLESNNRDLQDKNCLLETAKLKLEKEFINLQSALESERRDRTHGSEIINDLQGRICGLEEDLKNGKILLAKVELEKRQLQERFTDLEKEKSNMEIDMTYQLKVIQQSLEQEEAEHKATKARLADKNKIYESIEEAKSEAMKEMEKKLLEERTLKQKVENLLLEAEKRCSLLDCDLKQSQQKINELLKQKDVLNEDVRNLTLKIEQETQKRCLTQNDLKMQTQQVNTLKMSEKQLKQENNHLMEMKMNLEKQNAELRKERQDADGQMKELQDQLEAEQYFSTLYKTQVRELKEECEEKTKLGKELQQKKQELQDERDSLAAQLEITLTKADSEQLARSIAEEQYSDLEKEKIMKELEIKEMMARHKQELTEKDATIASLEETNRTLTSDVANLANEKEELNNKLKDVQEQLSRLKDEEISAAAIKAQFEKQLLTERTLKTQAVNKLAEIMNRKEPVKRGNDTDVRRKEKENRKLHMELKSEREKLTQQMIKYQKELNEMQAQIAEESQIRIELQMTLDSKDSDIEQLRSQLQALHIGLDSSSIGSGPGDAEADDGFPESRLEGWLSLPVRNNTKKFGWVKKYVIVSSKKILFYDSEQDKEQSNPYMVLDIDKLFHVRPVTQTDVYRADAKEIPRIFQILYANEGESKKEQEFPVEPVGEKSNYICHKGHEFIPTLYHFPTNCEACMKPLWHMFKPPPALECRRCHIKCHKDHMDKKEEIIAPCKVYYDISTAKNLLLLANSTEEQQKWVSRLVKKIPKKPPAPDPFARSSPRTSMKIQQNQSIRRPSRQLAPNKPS
# Chain of ROCK1 (Q13464 whole entry, species assumed): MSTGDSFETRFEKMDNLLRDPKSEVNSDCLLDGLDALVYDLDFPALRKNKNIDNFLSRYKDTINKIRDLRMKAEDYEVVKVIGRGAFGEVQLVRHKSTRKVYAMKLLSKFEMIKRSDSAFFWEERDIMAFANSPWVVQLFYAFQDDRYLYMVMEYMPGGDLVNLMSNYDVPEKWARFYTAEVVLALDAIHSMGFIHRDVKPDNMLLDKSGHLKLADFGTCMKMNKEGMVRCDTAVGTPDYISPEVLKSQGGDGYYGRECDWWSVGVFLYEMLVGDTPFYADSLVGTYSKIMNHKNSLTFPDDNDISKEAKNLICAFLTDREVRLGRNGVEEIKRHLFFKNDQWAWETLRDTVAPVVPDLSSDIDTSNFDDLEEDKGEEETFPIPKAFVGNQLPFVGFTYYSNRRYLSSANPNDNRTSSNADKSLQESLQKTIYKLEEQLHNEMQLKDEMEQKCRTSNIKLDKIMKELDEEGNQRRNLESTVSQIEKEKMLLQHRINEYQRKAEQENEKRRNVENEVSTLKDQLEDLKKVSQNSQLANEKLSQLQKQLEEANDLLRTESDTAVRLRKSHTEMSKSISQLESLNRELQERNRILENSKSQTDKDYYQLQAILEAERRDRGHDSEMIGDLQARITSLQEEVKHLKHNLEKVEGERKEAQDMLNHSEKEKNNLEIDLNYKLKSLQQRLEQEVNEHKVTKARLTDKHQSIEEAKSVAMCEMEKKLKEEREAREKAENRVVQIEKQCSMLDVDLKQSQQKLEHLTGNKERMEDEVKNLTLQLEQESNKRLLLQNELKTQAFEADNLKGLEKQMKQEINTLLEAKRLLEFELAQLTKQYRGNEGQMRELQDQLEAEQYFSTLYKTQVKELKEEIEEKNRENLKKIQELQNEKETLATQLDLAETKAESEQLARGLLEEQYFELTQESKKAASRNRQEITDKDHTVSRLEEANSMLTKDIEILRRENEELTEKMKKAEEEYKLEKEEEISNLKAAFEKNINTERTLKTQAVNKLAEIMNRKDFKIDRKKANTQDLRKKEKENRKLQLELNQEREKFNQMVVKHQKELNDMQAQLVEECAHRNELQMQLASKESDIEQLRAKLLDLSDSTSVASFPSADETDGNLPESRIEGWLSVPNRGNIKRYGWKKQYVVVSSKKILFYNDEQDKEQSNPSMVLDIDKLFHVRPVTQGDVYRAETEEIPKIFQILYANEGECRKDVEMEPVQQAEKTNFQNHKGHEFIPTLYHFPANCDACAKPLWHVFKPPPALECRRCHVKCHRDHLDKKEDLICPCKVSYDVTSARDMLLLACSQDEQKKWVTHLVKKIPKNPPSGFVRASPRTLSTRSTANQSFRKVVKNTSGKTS
Compound,IC50 (ROCK1) [nM],IC50 (ROCK2) [nM]
"Cc1cc(C(=O)NCc2ccc(F)cc2Cl)ccc1-c1cn[nH]c1 [Example 149, N-[(2-chloro-4-fluorophenyl)methyl]-3-methyl-4-(1H-pyrazol-4-yl)benzamide]",16.9,11.6
"C[C@@H](NC(=O)c1cc(F)c(-c2cn[nH]c2)cc1F)c1ccccc1 [Example 186, 2,5-difluoro-N-[(1R)-1-phenylethyl]-4-(1H-pyrazol-4-yl)benzamide]",472,190
"COc1cc(C(=O)NCc2ccc(Cl)cc2F)ccc1-c1cn[nH]c1 [Example 99, N-[(4-chloro-2-fluorophenyl)methyl]-3-methoxy-4-(1H-pyrazol-4-yl)benzamide]",15.8,1.36
"COC(=O)CC(NC(=O)c1ccc(-c2cn[nH]c2)c(OC)c1)c1ccccc1 (stereo in doubt) [Example 92, methyl (3R)-3-{[3-methoxy-4-(1H-pyrazol-4-yl)phenyl] formamido}-3-phenyl-propanoate]",53.7,21.4
"O=C(N[C@H](CO)c1c(F)cccc1F)c1ccc(-c2cn[nH]c2)c(OC(F)F)c1 [Example 196, 3-(difluoro-methoxy)-N-[(1S)-1-(2,6-difluorophenyl)-2-hydroxyethyl]-4-(1H-pyrazol-4-yl)benzamide]",63.7,13.8
"C[C@@H](NC(=O)c1ccc(-c2cn[nH]c2)c(CO)c1)c1ccccc1 [Example 272, 3-(hydroxymethyl)-N-[(1R)-1-phenylethyl]-4-(1H-pyrazol-4-yl)benzamide]",284,58.8
"COc1cc(C(=O)NCc2cccc3[nH]ncc23)ccc1-c1cn[nH]c1 [Example 86, N-(1H-indazol-4-ylmethyl)-3-methoxy-4-(1H-pyrazol-4-yl)benzamide]",41.8,7.99
"COc1cc(C(=O)NCc2cccc(C(=O)NC3(C)CC3)c2)ccc1-c1cn[nH]c1 [Example 83, 3-methoxy-N-(3-((1-methylcyclopropyl)carbamoyl)benzyl)-4-(1H-pyrazol-4-yl)benzamide]",3.16,1.14
"COc1cc(-c2cn[nH]c2)ccc1C(=O)N[C@H](CO)Cc1ccccc1 [Example 204, N-[(2S)-1-hydroxy-3-phenylpropan-2-yl]-2-methoxy-4-(1H-pyrazol-4-yl)benzamide]",9.8,15.2
"O=C(N[C@H](CO)c1c(F)cccc1F)c1ccc(-c2cn[nH]c2)c(C(F)(F)F)c1 [Example 202, N-[(1S)-1-(2,6-difluorophenyl)-2-hydroxyethyl]-4-(1H-pyrazol-4-yl)-3-(trifluoromethyl) benzamide]",193,55.7
"COc1cc(C(=O)N(C)Cc2ccccc2)ccc1-c1cn[nH]c1 [Example 71, N-benzyl-3-methoxy-N-methyl-4-(1H-pyrazol-4-yl)benzamide]",1340,494
"COc1cc(C(=O)NCc2cccc(C(=O)Nc3nc4c(s3)CN(C)CC4)c2)ccc1-c1cn[nH]c1 [Example 247, 3-methoxy-N-{[3-({5-methyl-4H, 5H,6H,7H-[1,3]thiazolo [5,4-c]pyridin-2-yl}carbamoyl)phenyl]methyl}-4-(1H-pyrazol-4-yl)benzamide]",0.39,0.33
"COc1cc(C(=O)NCc2cccc(C#N)c2)ccc1-c1cn[nH]c1 [Example 138, N-[(3-cyanophenyl)methyl]-3-methoxy-4-(1H-pyrazol-4-yl)benzamide]",32.6,8.24
"COc1cc(C(=O)NCc2cccc(C(=O)NCC3CC3)c2)ccc1-c1cn[nH]c1 [Example 236, N-({3-[(cyclopropyl-methyl)carbamoyl]phenyl}methyl)-3-methoxy-4-(1H-pyrazol-4-yl)benzamide]",1.79,0.37
"COc1cc(-c2cn[nH]c2)ccc1C(=O)N[C@@H](c1ccccc1)[C@H](O)CO [Example 225, N-[(1S,2S)-2,3-dihydroxy-1-phenylpropyl]-2-methoxy-4-(1H-pyrazol-4-yl)benzamide]",7.59,1.09
"COc1cc(C(=O)NCc2ccc(F)c(C(=O)O)c2)ccc1-c1cn[nH]c1 [Example 242, 2-fluoro-5-({[3-methoxy-4-(1H-pyrazol-4-yl)phenyl] formamido}methyl) benzoic acid]",39.2,4.41
"COc1cc(C(=O)NCc2cccc(Cl)c2Cl)ccc1-c1cn[nH]c1 [Example 29, N-(2,3-dichlorobenzyl)-3-methoxy-4-(1H-pyrazol-4-yl)benzamide]",5.77,2.53
"CC(O)c1cc(C(=O)NC(C)c2c(F)cccc2F)ccc1-c1cn[nH]c1 (stereo not shown) [Example 288, N-[1-(2,6-difluorophenyl)ethyl]-3-(1-hydroxyethyl)-4-(1H-pyrazol-4-yl)benzamide]",150,446
"C[C@@H](NC(=O)c1ccc(-c2cn[nH]c2)c(OC(F)F)c1)c1ccc(F)cc1 [Example 164, 3-(difluoro-methoxy)-N-[(1R)-1-(4-fluorophenyl)ethyl]-4-(1H-pyrazol-4-yl)benzamide]",22.5,7.49

Compound,IC50 (ROCK1) [nM],IC50 (ROCK2) [nM]
"COc1cc(C(=O)NCc2cccc(C(=O)N3CCCC3)c2)ccc1-c1cn[nH]c1 [Example 66, 3-methoxy-4-(1H-pyrazol-4-yl)-N-(3-(pyrrolidine-1-carbonyl)benzyl) benzamide]",64.3,23.5
"COc1cc(C(=O)NCc2cccc(S(N)(=O)=O)c2)ccc1-c1cn[nH]c1 [Example 231, 3-methoxy-4-(1H-pyrazol-4-yl)-N-[(3-sulfamoyl-phenyl)methyl] benzamide]",15.2,0.99
"COc1cc(C(=O)NCc2ccccc2O)ccc1-c1cn[nH]c1 [Example 31, N-(2-hydroxybenzyl)-3-methoxy-4-(1H-pyrazol-4-yl)benzamide]",9.2,5.62
"COc1cc(C(=O)NCc2cc(F)ccc2Cl)ccc1-c1cn[nH]c1 [Example 82, N-(2-chloro-5-fluorobenzyl)-3-methoxy-4-(1H-pyrazol-4-yl)benzamide]",9.89,4.39
"O=C(N[C@H](CO)c1ccccc1)c1ccc(-c2cn[nH]c2)c(OC(F)F)c1 [Example 160, 3-(difluoro-methoxy)-N-[(1S)-2-hydroxy-1-phenylethyl]-4-(1H-pyrazol-4-yl)benzamide]",17.1,6.94
"COc1cc(C(=O)NC(C)c2ccccc2OC)ccc1-c1cn[nH]c1 (stereo in doubt) [Example 173, 3-methoxy-N-[(1R)-1-(2-methoxyphenyl)ethyl]-4-(1H-pyrazol-4-yl)benzamide]",72.4,27.2
"CC(O)c1cc(C(=O)NC(C)c2ccccc2F)ccc1-c1cn[nH]c1 (stereo not shown) [Example 278, N-[1-(2-fluorophenyl)ethyl]-3-(1-hydroxyethyl)-4-(1H-pyrazol-4-yl)benzamide]",1780,1320
"COc1cc(C(=O)NC(C)c2ccc3c(c2)OCCO3)ccc1-c1cn[nH]c1 (stereo not shown) [Example 101, N-[1-(2,3-dihydro-1,4-benzodioxin-6-yl)ethyl]-3-methoxy-4-(1H-pyrazol-4-yl)benzamide]",742,189
"COc1cc(C(=O)NCc2ccc3c(c2)OCO3)ccc1-c1cn[nH]c1 [Example 38, N-(benzo[d] [1,3]dioxol-5-ylmethyl)-3-methoxy-4-(1H-pyrazol-4-yl)benzamide]",34.8,14.2
"COc1cc(C(=O)NCc2cccc(F)c2)ccc1-c1cn[nH]c1 [Example 17, N-(3-fluorobenzyl)-3-methoxy-4-(1H-pyrazol-4-yl)benzamide]",8.42,4.01
"COc1cc(-c2c[nH]nc2C(F)(F)F)ccc1C(=O)NCc1c(F)cccc1Cl [Example 189, N-[(2-chloro-6-fluorophenyl)methyl]-2-methoxy-4-[3-(trifluoromethyl)-1H-pyrazol-4-yl]benzamide]",39.4,42.5
"COc1cccc(CNC(=O)c2ccc(-c3cn[nH]c3)cc2CO)c1 [Example 161, 2-(hydroxymethyl)-N-[(3-methoxyphenyl)methyl]-4-(1H-pyrazol-4-yl)benzamide]",792,185
"COc1cc(C(=O)N(Cc2ccccc2F)CC(C)(C)O)ccc1-c1cn[nH]c1 [Example 298, N-(2-Fluorobenzyl)-N-(2-hydroxy-2-methylpropyl)-3-methoxy-4-(1H-pyrazol-4-yl)benzamide]",839,667
"COc1cc(C(=O)N[C@H]2C[C@@H]2c2ccccc2)ccc1-c1cn[nH]c1 (racemic) [Example 68, (+/−)-3-methoxy-N-(trans-2-phenyl-cyclopropyl)-4-(1H-pyrazol-4-yl)benzamide]",30.1,8.52
"COc1cc(C(=O)NC(CCN(C)C)c2ccccc2)ccc1-c1cn[nH]c1 (stereo not shown) [Example 169, N-[3-(dimethylamino)-1-phenylpropyl]-3-methoxy-4-(1H-pyrazol-4-yl)benzamide]",4.7,1.93
"COc1cc(-c2cn[nH]c2)ccc1C(=O)NC(c1ccccc1F)C(C)(C)O (stereo not shown) [Example 218, N-[1-(2-fluorophenyl)-2-hydroxy-2-methylpropyl]-2-methoxy-4-(1H-pyrazol-4-yl)benzamide]",24.7,6.52
"COc1cc(C(=O)NCc2cccc(C(=O)NC3CCN(C)CC3)c2)ccc1-c1cn[nH]c1 [Example 248, 3-methoxy-N-({3-[(1-methylpiperidin-4-yl)carbamoyl]phenyl}methyl)-4-(1H-pyrazol-4-yl)benzamide]",0.43,0.19
"COc1cc(C(=O)NC(CN)Cc2ccccc2)ccc1-c1cn[nH]c1 (stereo not shown) [Example 232, N-(1-amino-3-phenylpropan-2-yl)-3-methoxy-4-(1H-pyrazol-4-yl)benzamide]",1.04,0.36
"COc1cc(C(=O)N[C@H](C)c2ccc3c(c2)CCO3)ccc1-c1cn[nH]c1 [Example 106, N-[(1R)-1-(2,3-dihydro-1-benzofuran-5-yl)ethyl]-3-methoxy-4-(1H-pyrazol-4-yl)benzamide]",50.1,27

# From patent publication US9458110B2, “Phenylpyrazole derivatives as potent ROCK1 and ROCK2 inhibitors” (BRISTOL-MYERS SQUIBB COMPANY, priority 2013, dated 2016)
